Several values for one entry are separate records, joined by “and”; a condition that tells them apart may be missing. Equal entries are not always repeated.
Columns and labels:
hP2X7R [1] = molecular target: T1, hP2X7R (Homo sapiens, UniProt Q99572); assay: Calcium influx assay in HEK-hP2X7 cells; type: cell-based; conditions: HEK cells expressing hP2X7R, BzATP 100 μM; mean ± standard deviation, n >3
T1 sequence (Q99572 1-595): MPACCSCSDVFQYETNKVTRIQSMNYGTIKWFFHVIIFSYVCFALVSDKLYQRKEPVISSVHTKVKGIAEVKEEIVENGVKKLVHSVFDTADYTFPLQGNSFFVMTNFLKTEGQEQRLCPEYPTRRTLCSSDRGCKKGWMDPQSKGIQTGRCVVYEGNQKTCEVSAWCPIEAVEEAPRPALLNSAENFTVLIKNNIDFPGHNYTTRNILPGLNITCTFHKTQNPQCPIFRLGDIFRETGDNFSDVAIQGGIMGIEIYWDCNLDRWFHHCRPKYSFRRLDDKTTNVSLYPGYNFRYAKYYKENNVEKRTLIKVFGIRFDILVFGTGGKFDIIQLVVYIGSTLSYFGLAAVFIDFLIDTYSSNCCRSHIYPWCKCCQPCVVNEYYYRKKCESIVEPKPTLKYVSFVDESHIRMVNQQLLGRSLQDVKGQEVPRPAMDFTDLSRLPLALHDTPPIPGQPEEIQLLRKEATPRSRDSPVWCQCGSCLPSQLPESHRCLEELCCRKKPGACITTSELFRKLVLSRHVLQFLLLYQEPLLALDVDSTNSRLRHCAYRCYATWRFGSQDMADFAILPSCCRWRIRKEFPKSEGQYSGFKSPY
Protocol: HEK293T cells transfected with cDNA for the human (HEK-hP2X7) or mouse P2X7 (HEK-mP2X7) receptor (a kind gift from Dr […] Stokes and Prof. Jim Wiley) were cultured in DMEM/F12 with 10% FBS and 500 μg/mL G418 (all from Invitrogen). […] HEK-hP2X7 or HEK-mP2X7 cells were harvested using trypsin (0.05%) with EDTA (0.03%). Cells were loaded with Fluo-4 AM (1 μM) in HBSS buffer at 37° C. for 30 min, inverting every 5 mins. […] Fluorescence was then monitored every 5 s for 5 min total monitoring. […] Data were normalized to the peak response seen with BzATP alone and the basal response seen due to injection of vehicle (see FIG. 3).

hP2X7R [2] = molecular target: T1, hP2X7R; assay: Radioligand binding assay, displacement of [3H]-Compound 31, HEK-hP2X7 membranes; conditions: displacement of tritium-labeled benzamide 31-t3, HEK cells expressing hP2X7R; mean ± standard deviation, n >3; read-out: Binding affinity Ki
Protocol: Homogenates were centrifuged at 48 000 g for 20 min at 4° C., the supernatant discarded and the pellet resuspended in Tris HCl 50 mM (pH 7.4 at 4° C.). Two additional spins at 48 000 g followed, discarding the supernatant each time and resuspending the pellet in 50 mM Tris HCl each time. Protein content was determined via bicinchoninic acid (BCA) assay (Pierce Biotechnology Inc., Rockford), the membrane solution supplemented with 0.1% bovine serum albumin (BSA) and stored at −80° C.
The incubation was terminated by rapid filtration through a glass fibre filter (GF/B; Millipore, Ireland), presoaked beforehand with 0.3% PEI) and washed 10 times with 50 mM Tris HCl (4° C.). The filters were then allowed to dry overnight before adding Microscint-0 scintillation cocktail (Perkin Elmer). […] For Kd and Bmax determination the specific binding was calculated (total binding minus non-specific binding) and analyzed using a one-site binding model (hyperbolic). The total binding and non-specific binding were also plotted for comparison (see FIG. 4). […] The extra sum of squares F-test was used to evaluate three potential models to fit the data; a one-site fit (with hill slope constrained to 1), a one-site fit (with hill slope as a variable) and a two-site fit. […] The Koff from dissociation studies was calculated using non-linear regression (exponential model) and then, in combination with the data from association studies, used to calculate the Kon. All data were analyzed using GraphPad Prism 5.

[3] = Liver microsome stability; type: in vitro ADME; conditions: liver microsomes, rat liver microsome, 37° C., read-out: Liver microsome T1/2 (converted)
Excerpt: Microsomes are vesicles of endoplasmic reticulum isolated from liver homogenate following differential centrifugation. They contain drug metabolising enzymes including the cytochromes P450 (CYP) responsible for a majority of drug metabolism. They also contain the phase II metabolising enzyme responsible for glucuronidation—uridine diphosphate glucuronyltransferase (UDPGT). As they contain many of the drug metabolizing enzymes found in the liver they are useful in vitro models of hepatic clearance. Assays are performed by incubating drugs of interest at a concentration of 1 μM with the microsomes at 37° C. The disappearance of the test compound is monitored at fixed points over a period of 60 minutes and samples analysed using LC-MSMS. The resulting data can be used to determine: • 1. Intrinsic clearance. These values can be used to categorise compounds into bands of high, medium or low clearance. Generally compounds with high clearances are considered to be less favourable as they are likely to be cleared more rapidly in vivo resulting in a short duration of action. • 2. Rank order compounds in order of microsomal stability by calculating half-life. Cytochrome Profiling […]

CYP2C9 = molecular target: T2, CYP2C9 (Homo sapiens, UniProt P11712); assay: Cytochrome profiling CYP2C9 (baculosomes); type: in vitro ADME; conditions: probe fluorogenic probe substrate (not named), 10 μM substrate
T2 construct: host or cells: insect cells infected with recombinant baculovirus (microsomes)
T2 sequence (P11712 whole entry): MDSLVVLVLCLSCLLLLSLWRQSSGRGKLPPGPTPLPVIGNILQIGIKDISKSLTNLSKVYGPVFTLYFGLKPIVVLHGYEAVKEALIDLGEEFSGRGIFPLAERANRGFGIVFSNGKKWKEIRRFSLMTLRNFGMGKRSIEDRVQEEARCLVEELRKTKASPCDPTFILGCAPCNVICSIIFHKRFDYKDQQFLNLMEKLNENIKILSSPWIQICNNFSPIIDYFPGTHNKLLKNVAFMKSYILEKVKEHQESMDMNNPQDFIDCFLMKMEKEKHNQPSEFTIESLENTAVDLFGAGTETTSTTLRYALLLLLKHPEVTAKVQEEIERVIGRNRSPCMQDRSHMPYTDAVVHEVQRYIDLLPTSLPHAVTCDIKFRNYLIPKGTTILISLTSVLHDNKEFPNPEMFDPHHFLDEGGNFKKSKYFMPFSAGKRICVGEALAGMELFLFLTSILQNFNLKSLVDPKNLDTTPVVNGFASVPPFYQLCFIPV
Excerpt: (§1) Cytochrome P450 (abbreviated CYP, P450 or CYP450) belong to very large and diverse superfamily of haemoproteins which accept both exogenous and endogenous compounds as substrates in enzymatic reactions and play a major role in drug metabolism. Although this class has more than 50 enzymes just 5 of them (CYP1A2, CYP2C9, CYP2C19, CYP2D6 and CYP3A4) are able to metabolise almost 90% of all drugs. Inhibition of these enzymes is one of the major reasons for drug-drug interactions. Consequently, detailed CYP inhibition profiles are a regulatory requirement for all new drugs. Inhibition potencies against the five most relevant CYP isoforms is performed using baculosomes; microsomes prepared from insect cells infected with recombinant baculovirus containing cDNA for a specific human P450 isozyme. The baculosomes are incubated with drug at a concentration of 1 μM in the presence of a probe substrate for 60 minutes at 37° C. The probe is normally metabolised by the baculosomes to produce a fluorescent metabolite. A substrate drug will compete for the isozyme and reduce the metabolism of the probe resulting in a decrease in the fluorescent signal. The percent inhibition due to the presence of the test compound is calculated using the following equation: [formula] • X=fluorescent intensity observed in the presence of test compound • A=fluorescent intensity observed in control • B=fluorescent intensity observed in the presence of the probe control

CYP2D6 = molecular target: T3, CYP2D6 (Homo sapiens, UniProt P10635); assay: Cytochrome profiling CYP2D6 (baculosomes); type: in vitro ADME; conditions: probe fluorogenic probe substrate (not named), 10 μM substrate
T3 construct: host or cells: insect cells infected with recombinant baculovirus (microsomes)
T3 sequence (P10635 whole entry): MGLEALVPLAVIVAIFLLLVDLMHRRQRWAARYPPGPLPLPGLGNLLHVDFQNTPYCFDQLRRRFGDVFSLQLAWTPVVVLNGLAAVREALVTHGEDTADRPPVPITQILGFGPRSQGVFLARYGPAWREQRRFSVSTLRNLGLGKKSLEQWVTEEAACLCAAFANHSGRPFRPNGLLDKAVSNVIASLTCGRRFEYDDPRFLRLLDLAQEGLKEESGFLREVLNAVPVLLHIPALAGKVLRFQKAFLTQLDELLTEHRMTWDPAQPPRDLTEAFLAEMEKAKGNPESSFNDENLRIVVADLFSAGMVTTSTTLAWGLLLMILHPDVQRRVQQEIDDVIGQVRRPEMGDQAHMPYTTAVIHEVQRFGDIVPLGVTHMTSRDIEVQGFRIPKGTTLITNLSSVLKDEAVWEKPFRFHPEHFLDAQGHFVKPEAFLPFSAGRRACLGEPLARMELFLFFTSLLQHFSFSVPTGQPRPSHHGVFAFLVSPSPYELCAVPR
Excerpt: as §1

For `COc1ccc(Cl)c(C(=O)NCC23CC4CC(CC(C4)C2)C3)c1` [Compound 31, reference compound], the IC50 (hP2X7R [1]) was 0.026 µM and 0.0257 µM, the Ki (hP2X7R [2]) was 0.0085 µM and the half-life at 1 μM [3] was 7.8 min. The inhibition at 60 min, 1 μM (CYP2C9) was 75% and the inhibition at 60 min, 1 μM (CYP2D6) was -47.3%.
With `COc1ccc(Cl)c(C(=O)NCC23CC4CC(F)(CC(F)(C4)C2)C3)c1` [Compound 2, 2-Chloro-N-((3,5-difluoroadamantan-1-yl)methyl)-5-methoxybenzamide] the IC50 (hP2X7R [1]) was 0.01 ± 0.004 µM, the Ki (hP2X7R [2]) was 0.023 ± 0.005 µM and the half-life at 1 μM [3] was 18 min. The inhibition at 60 min, 1 μM (CYP2C9) was -3% and the inhibition at 60 min, 1 μM (CYP2D6) was -25.3%.
`COc1ccc(Cl)c(C(=O)NCC23CC4CC(CC(F)(C4)C2)C3)c1` [Compound 3, 2-Chloro-N-((3-fluoroadamantan-1-yl)methyl)-5-methoxybenzamide] showed an IC50 (hP2X7R [1]) of 0.0174 ± 0.0029 µM, a Ki (hP2X7R [2]) of 0.0219 ± 0.0005 µM and a half-life at 1 μM [3] of 4.8 min. For the same molecule, the inhibition at 60 min, 1 μM (CYP2C9) was 32.3% and the inhibition at 60 min, 1 μM (CYP2D6) was -28.9%.
In the case of `COc1ccc(Cl)c(C(=O)NCC23CC4(F)CC(F)(CC(F)(C4)C2)C3)c1` [Compound 1, 2-Chloro-N-((3,5,7-trifluoroadamantan-1-yl)methyl)-5-methoxybenzamide], the half-life at 1 μM [3] is reported as 46.8 min, the inhibition at 60 min, 1 μM (CYP2C9) is reported as 9.26% and the inhibition at 60 min, 1 μM (CYP2D6) is reported as -29.1%.

— patent US12668568B2, “Adamantanyl-substituted benzamide compounds and their use as P2X7 receptor antagonists” (The University of Sydney, priority 2018, dated 2026)
